According to patent US20260055061A1, “HALOPHTHALIMIDE COMPOUNDS AND METHODS OF USE AGAINST TBI, INFLAMMATORY DISORDER, AUTOIMMUNE DISORDER, NEURODEGENERATIVE DISEASE OR VIRAL INFECTION” (The United States of America, as represented by the …, priority 2022, published 2026):
Entries after “also recorded” stand apart in the source; their conditions may differ.

Experiments:
[1] = test system: CCI-induced TBI mice; test: CCI mouse model of TBI: DigiGait gait analysis; type: in vivo; conditions: high dose 32.5 mg/kg; 1 week after CCI
Procedure: In vivo model of TBI: Mice were anesthetized with 2.5% tribromoethanol (Avertin: 250 mg/kg; Sigma, St. Louis, MO, USA) and placed in a stereotaxic frame (Kopf Instruments, Tujunga, CA, USA). A 4 mm craniotomy was performed using sterile procedures; the craniotomy point was selected midway between the lambda and bregma sutures and laterally midway between the central suture and the temporalis muscle. The skull fragment was then carefully removed without disruption of the underlying dura. Prior to injury induction, the tip of the impactor was angled and kept perpendicular to the exposed cortical surface. The mouse CCI instrument consisted of an electromagnetic impactor, Impact One (Leica Biosystems Inc., Buffalo Grove, IL, USA) that allows independent alteration of injury severity by controlling contact velocity and the level of cortical deformation. In these experiments, the contact velocity was set at 5.0 m/sec, the dwell time was set at 0.2 s and the deformation depth was set at 2 mm to produce a moderate TBI. The injury site was allowed to dry prior to suturing the wound. During surgery and recovery, the body temperature of the animals was maintained at 36-37° C. by using a heating pad. […] Mice were randomized following CCI to treatment with either of two doses of TFBP (16.25 mg/kg and 32.5 mg/kg, i.p.) or saline, and were dosed at 1 and 24 hr after the injury.
Behavioral assessment for motor functions and coordination: Behavioral tests were performed 1 week and 2 weeks after injury, to assess changes in motor functions and coordination. All tests were performed during the animals' light phase; cages were transported to testing rooms at least 30 min prior to testing.
Gait analysis: For the gait analysis, mice were tested on a fixed-speed treadmill apparatus (DigiGait; Mouse Specifics). Mice were habituated to the apparatus for 1 min, and then given a 1-min run at 5 cm/s. Following a 1-min rest, the treadmill speed was increased to 15 cm/s. Video was collected at high speed from a ventrally placed camera, and 3-5 s of representative gait video was selected by an experienced but blinded user for automated analysis.
In Vivo Model of TBI: TBI studies were conducted in 8-week-old male C57/BL6 mice (25-30 g; n=20), Jackson Laboratory, Bar Harbor, Maine USA. Mice were randomly assigned to four groups prior surgery, CMC+Sham, CMC+TBI, compound 30 (Low dose (LD), 14.78 mg/kg, prepared in 1% CMC in PBS)+TBI, compound 30 (High dose (HD), 29.57 mg/kg)+TBI, and evaluated the effects of compound 30 on TBI. Mice were assessed for gait function and motor coordination, balance function. Animals were subsequently evaluated for cellular changes using histological and immunohistochemistry staining. […]

[2] = Phase I metabolic stability in human liver microsomes (+/- NADPH, LC/MS); type: in vitro ADME
Procedure: The fluorinated compounds were evaluated under the more metabolically demanding conditions of a Phase-1-type microsomal analysis. […] For this initial comparison, the 7-fluoro-dithiopomaldiomide 30 was selected owing to its combination of favorable biological parameters and general ease of synthesis. The reactions on each sample were initiated by addition of human liver microsomes in the presence or absence of an NADPH regenerating system, and compound disappearance was monitored via LC/MS (FIG. 14, Table 10).

more material remaining compared to non-fluorinated partner ([2]; vs 4′, human liver microsomes) | more stability in the absolute sense ([2]; vs non-fluorinated 4′, human liver microsomes) [%] | Structure (SMILES) | gait brake time [1] | stability in human liver microsomes (in words) ([2]; with and without NADPH)
 |  | CC1(C)[C@@H]2CC[C@@]1(C)[C@@H](N1C(=O)c3c(F)c(F)c(F)c(F)c3C1=O)C2 [Compound 14, 4,5,6,7-Tetrafluoro-2-((1R,2S,4R)-1,7,7-trimethylbicyclo[2.2.1]heptan-2-yl) isoindoline-1,3-dione] | fully mitigates this rise | 
roughly 16% | 7 | Nc1ccc(F)c2c1C(=S)N(C1CCC(=S)NC1=O)C2=O (stereo not shown) [Compound 30, 4-amino-7-fluoro-2-(2-oxo-6-thioxopiperidin-3-yl)-3-thioxoisoindolin-1-one] |  | heightened resistance; also recorded: enhanced metabolic fortitude
